Source: ChEMBL document CHEMBL5550222, “Synthesis and Biological Evaluation of Novel Psidium Meroterpenoid Derivatives against Cisplatin-Induced Acute Kidney Injury” (J Med Chem, 2024)
Active and inactive are the calls of the source. No cut-off for these calls is given here.

Assays:
[1] = Cytotoxicity against human HK-2 cells incubated for 72 hrs by MTT assay; format: toxicity, cell-based
HK-2 [2] = experiment: Protection against cisplatin-induced nephrotoxicity in human HK-2 cells assessed as cell viability at 10 uM preincubated with compound for 2 hrs followed by cisplatin induction and measured after 72 hrs by MTT assay (reference value: 45.1 +/- 3.2%); format: functional; conditions: time 74 hrs, read-out: Activity
HK-2 [3] = experiment: Protection against cisplatin-induced nephrotoxicity in human HK-2 cells preincubated with compound for 2 hrs followed by cisplatin induction and measured after 72 hrs by MTT assay; format: functional, cell-based; conditions: dose 1-10 µM, time 74.0 hrs
NCI-H1299 = experiment: Cytotoxicity against human NCI-H1299 cells; format: functional, cell-based
HK-2 [4] = experiment: Protection against cisplatin-induced nephrotoxicity in human HK-2 cells at 5 to 10 uM preincubated with compound for 2 hrs followed by cisplatin induction and measured after 72 hrs by MTT assay; format: functional, cell-based; conditions: dose 5-10 µM, time 74.0 hrs
HK-2 [5] = experiment: Protection against cisplatin-induced apoptosis in human HK-2 cells assessed as reduction in BAX expression preincubated with compound for 2 hrs followed by cisplatin induction and measured after 48 hrs by Western blotting analysis; format: functional, cell-based; conditions: dose 2.5-10 µM, time 50.0 hrs
HK-2 [6] = experiment: Protection against cisplatin-induced nephrotoxicity in human HK-2 cells assessed as cell viability at 5 uM preincubated with compound for 2 hrs followed by cisplatin induction and measured after 72 hrs by MTT assay (reference value: 45.1 +/- 3.2%); format: functional; conditions: time 74 hrs, read-out: Activity
Cell membrane = experiment: Induction of mitochondrial membrane potential loss in human HK-2 cells assessed as increase in ATP5A1 expression by Western blot analysis; format: cell membranes; conditions: dose 2.5-10 µM
HK-2 [7] = experiment: Effect on ATP7A mRNA level in human HK-2 cells by transcriptome sequencing analysis; format: functional, cell-based; conditions: dose 2.5-10 µM
HK-2 [8] = experiment: Protection against cisplatin-induced nephrotoxicity in human HK-2 cells increase in viability at 10 uM preincubated with compound for 2 hrs followed by cisplatin induction and measured after 72 hrs by MTT assay (reference value: 45.1%); format: functional; conditions: time 74 hrs
[9] = Acute toxicity in C57BL/6J mouse assessed as lung damage at 1 g/Kg, po measured for 2 weeks by H and E staining based analysis; format: organism-based; conditions: in vivo, 1000 mg/kg, 336 h
[10] = Acute toxicity in C57BL/6J mouse assessed as liver damage at 1 g/Kg, po measured for 2 weeks by H and E staining based analysis; format: organism-based; conditions: in vivo, 1000 mg/kg, 336 h
[11] = Acute toxicity in C57BL/6J mouse assessed as brain damage at 1 g/Kg, po measured for 2 weeks by H and E staining based analysis; format: organism-based; conditions: in vivo, 1000 mg/kg, 336 h
[12] = AUC (0 to t) in ICR mouse 1 mg/kg, iv measured for 24 hrs by HPLC-MS analysis; format: ADME, organism-based; conditions: in vivo
[13] = AUC (0 to infinity) in ICR mouse 50 mg/kg, po measured for 24 hrs by HPLC-MS analysis; format: ADME, organism-based; conditions: in vivo
[14] = Volume of distribution in ICR mouse 1 mg/kg, iv measured for 24 hrs by HPLC-MS analysis; format: ADME, organism-based; conditions: in vivo
[15] = MRT (0 to t) in ICR mouse 1 mg/kg, iv measured for 24 hrs by HPLC-MS analysis; format: ADME, organism-based; conditions: in vivo
[16] = MRT (0 to t) in ICR mouse 50 mg/kg, po measured for 24 hrs by HPLC-MS analysis; format: ADME, organism-based; conditions: in vivo
[17] = Acute toxicity in C57BL/6J mouse assessed as spleen damage at 1 g/Kg, po measured for 2 weeks by H and E staining based analysis; format: organism-based; conditions: in vivo, 1000 mg/kg, 336 h
[18] = Cmax in ICR mouse 50 mg/kg, po measured for 24 hrs by HPLC-MS analysis; format: ADME, organism-based; conditions: in vivo
[19] = AUC (0 to t) in ICR mouse 50 mg/kg, po measured for 24 hrs by HPLC-MS analysis; format: ADME, organism-based; conditions: in vivo
[20] = Acute toxicity in C57BL/6J mouse assessed as heart damage at 1 g/Kg, po measured for 2 weeks by H and E staining based analysis; format: organism-based; conditions: in vivo, 1000 mg/kg, 336 h
HK-2 [21] = experiment: Protection against cisplatin-induced nephrotoxicity in human HK-2 cells at 1 to 10 uM preincubated with compound for 2 hrs followed by cisplatin induction and measured after 72 hrs by MTT assay; format: functional, cell-based; conditions: dose 1-10 µM, time 74.0 hrs
[22] = AUC (0 to infinity) in ICR mouse 1 mg/kg, iv measured for 24 hrs by HPLC-MS analysis; format: ADME, organism-based; conditions: in vivo
[23] = Acute toxicity in C57BL/6J mouse assessed as small intestine damage at 1 g/Kg, po measured for 2 weeks by H and E staining based analysis; format: organism-based; conditions: in vivo, 1000 mg/kg, 336 h
[24] = Acute toxicity in C57BL/6J mouse assessed as animal death at 1 g/Kg, po measured for 2 weeks; format: organism-based; conditions: in vivo, 1000 mg/kg, 336 h
[25] = MRT (0 to infinity) in ICR mouse 50 mg/kg, po measured for 24 hrs by HPLC-MS analysis; format: ADME, organism-based; conditions: in vivo
[26] = MRT (0 to infinity) in ICR mouse 1 mg/kg, iv measured for 24 hrs by HPLC-MS analysis; format: ADME, organism-based; conditions: in vivo
[27] = Oral bioavailability in ICR mouse 50 mg/kg measured for 24 hrs by HPLC-MS analysis; format: ADME, organism-based; conditions: in vivo
[28] = Clearance in ICR mouse 1 mg/kg, iv measured for 24 hrs by HPLC-MS analysis; format: ADME, organism-based; conditions: in vivo
Mus musculus [29] = experiment: Protection against cisplatin-induced nephrotoxicity in C57BL6/J mouse assessed as reduction in SCR level in kidney at 100 mg/kg, po preadministered with compound for 2 days followed by cisplatin addition on day 3 and measured 72 hrs post cisplatin administration; format: functional, organism-based; conditions: time 5.0 day
[30] = Acute toxicity in C57BL/6J mouse assessed as ovary damage at 1 g/Kg, po measured for 2 weeks by H and E staining based analysis; format: organism-based; conditions: in vivo, 1000 mg/kg, 336 h
[31] = Terminal half life in ICR mouse 1 mg/kg, iv measured for 24 hrs by HPLC-MS analysis; format: ADME, organism-based; conditions: in vivo, read-out: beta t1/2 (converted)
[32] = Cmax in ICR mouse 1 mg/kg, iv measured for 24 hrs by HPLC-MS analysis; format: ADME, organism-based; conditions: in vivo
Mus musculus [33] = experiment: Protection against cisplatin-induced nephrotoxicity in C57BL6/J mouse assessed as reduction in BUN level in kidney at 100 mg/kg, po preadministered with compound for 2 days followed by cisplatin addition on day 3 and measured 72 hrs post cisplatin administration; format: functional, organism-based; conditions: time 5.0 day
[34] = Acute toxicity in C57BL/6J mouse assessed as stomach damage at 1 g/Kg, po measured for 2 weeks by H and E staining based analysis; format: organism-based; conditions: in vivo, 1000 mg/kg, 336 h
[35] = Acute toxicity in C57BL/6J mouse assessed as kidney damage at 1 g/Kg, po measured for 2 weeks by H and E staining based analysis; format: organism-based; conditions: in vivo, 1000 mg/kg, 336 h
[36] = Acute toxicity in C57BL/6J mouse assessed as abnormal behavior at 1 g/Kg, po measured for 2 weeks; format: organism-based; conditions: in vivo, 1000 mg/kg, 336 h
[37] = Terminal half life in ICR mouse 50 mg/kg, po measured for 24 hrs by HPLC-MS analysis; format: ADME, organism-based; conditions: in vivo, read-out: beta t1/2 (converted)

COc1c(C=O)c(OC)c(C(=O)c2ccccc2)c2c1CC1CC/C(C)=C/CC(C)(C)/C=C/CC1(C)O2 (stereo not drawn)
IC50 at 72 h [1]: > 10 µM
viability at 10 µM (HK-2 [2]): 90.6%
Activity (HK-2 [3]): Dose-Dependent Effect
Activity (NCI-H1299): Active
Activity (HK-2 [4]): Active
Activity (HK-2 [5]): Dose-Dependent Effect
viability at 5 µM (HK-2 [6]): 82.8%
Activity (Cell membrane): Active
Activity (HK-2 [7]): Dose-Dependent Effect
Activity (HK-2 [8]): >90%

COc1c(CO)c(OC)c(C(=O)c2ccccc2)c2c1C[C@H]1CC/C(C)=C/CC(C)(C)/C=C/C[C@]1(C)O2
Activity [9]: Non-Toxic
Activity [10]: Non-Toxic
Activity [11]: Non-Toxic
AUC(0-t) at 24 h [12]: 137 ng·h/mL
AUC(0-inf) [13]: 869 ng·h/mL
Vd [14]: 24.4 L/kg
MRT last at 24 h [15]: 1.59 h
MRT last at 24 h [16]: 2.29 h
Activity [17]: Non-Toxic
Cmax [18]: 266 ng/mL
AUC(0-t) at 24 h [19]: 783 ng·h/mL
Activity [20]: Non-Toxic
Activity (NCI-H1299): Active
Activity (HK-2 [21]): Active
AUC(0-inf) [22]: 146 ng·h/mL
Activity [23]: Non-Toxic
Activity [24]: Non-Toxic
MRT inf [25]: 3.21 h
MRT inf [26]: 2.22 h
Activity (HK-2 [5]): Dose-Dependent Effect
Activity (Cell membrane): Active
bioavailability [27]: 11.9%
clearance [28]: 114 mL/min/kg
Activity (Mus musculus [29]): Active
Activity [30]: Non-Toxic
half-life [31]: 2.47 h
Cmax [32]: 485 ng/mL
Activity (Mus musculus [33]): Active
Activity [34]: Non-Toxic
Activity [35]: Non-Toxic
Activity (HK-2 [7]): Dose-Dependent Effect
Activity [36]: Non-Toxic
half-life [37]: 2.5 h
